Measurements published in patent US10494363B2, “Non-steroidal glucocorticoid receptor modulators for local drug delivery” (LEO PHARMA A/S, priority 2015, dated 2019).
pEC50, pIC50: −log10 of the molar value.

Columns and labels:
[1] = tested on: TNF alpha release from human PBMCs; assay: Inhibition of TNF alpha release from human PBMCs; assay type: cell-based; conditions: PBMC, LPS 1 μg/ml, 18 hours, AlphaLISA
Experimental: PBMC were isolated from fresh buffy coats by density centrifugation using lymphoprep (Medinor AB, cat no 1019818) tubes. Isolated PBMCs were washed in assay medium (RPMI1640 with 25 mM HEPES, 1% pen/strep, 200 mM L glutamine and 10% Foetal calf serum). Surplus PBMCs were frozen in medium containing extra 10% foetal calf serum and 5% DMSO. On the assay day, fresh cells or cryopreserved cells after thawing were washed in serum free medium (RPMI1640 with 25 mM HEPES, 1% pen/strep, 200 mM L glutamine and 0.5% human serum albumin) and counted, in order to determine the fraction of living cells (generally >95%).
Test compounds were diluted in DMSO over seven orders of magnitude, further diluted in serum-free medium and distributed into wells of 384 well tissue culture plates. LPS was added to a final concentration of 1 μg/ml to the cells. Immediately thereafter titrated test compounds were added and incubated for 18 hours at 37° C.
The level of TNF-a in the culture supernatant was quantitated by AlphaLISA (Perkin Elmer). 2-(3,5-dichloro-4-pyridinyl)-1-(7-methoxyspiro[1,3-benzodioxole-2,1′-cyclopentan]-4-yl)-ethanone (CAS 185406-34-2) at 100×IC50 was used to define the assay window.
Data were processed by sigmoidal curve fitting. EC50 and Emax were determined from the curve fits.

[2] = Human liver microsomes (HLM) assay; assay type: in vitro ADME; conditions: hepatic extraction ratio; 0.5 μM compound, 0.5 mg/mL microsomes, NADPH, 37° C.
Experimental: Incubations of test compounds in DMSO, diluted with phosphate buffer, pH 7.4, at 0.5 μM were carried out with human liver microsomes (0.5 mg/mL). The percentage of organic solvent in the incubations was 1%. The human liver microsomal suspension in phosphate buffer was mixed with NADPH (1 mM) and preheated to 37° C. before test compound was added. Aliquots were taken at 0, 5, 10, 20 and 30 minutes, and reactions were terminated by addition of methanol containing analytical internal standard (IS).
The results were expressed as apparent clearance (Clapp) (mL/min/kg) and hepatic extraction ratio (Eh) (%) calculated from the rate constant (k) (min^−1) of test compound depletion.

[3] = target: T1, glucocorticoid receptor (GR), recombinant full-length receptor protein (Homo sapiens, UniProt P04150); assay: Glucocorticoid receptor binding assay (fluorescence polarization kit); conditions: 4 nM receptor, 2.5 nM Fluormone GS1 tracer, 2h room temperature, read-out: GR binding ABS IC50
T1 construct: 4 nM recombinant, full-length receptor protein was incubated with increasing concentrations of GR ligand; purchased Life Technologies A-15897
T1 sequence (P04150 1-777): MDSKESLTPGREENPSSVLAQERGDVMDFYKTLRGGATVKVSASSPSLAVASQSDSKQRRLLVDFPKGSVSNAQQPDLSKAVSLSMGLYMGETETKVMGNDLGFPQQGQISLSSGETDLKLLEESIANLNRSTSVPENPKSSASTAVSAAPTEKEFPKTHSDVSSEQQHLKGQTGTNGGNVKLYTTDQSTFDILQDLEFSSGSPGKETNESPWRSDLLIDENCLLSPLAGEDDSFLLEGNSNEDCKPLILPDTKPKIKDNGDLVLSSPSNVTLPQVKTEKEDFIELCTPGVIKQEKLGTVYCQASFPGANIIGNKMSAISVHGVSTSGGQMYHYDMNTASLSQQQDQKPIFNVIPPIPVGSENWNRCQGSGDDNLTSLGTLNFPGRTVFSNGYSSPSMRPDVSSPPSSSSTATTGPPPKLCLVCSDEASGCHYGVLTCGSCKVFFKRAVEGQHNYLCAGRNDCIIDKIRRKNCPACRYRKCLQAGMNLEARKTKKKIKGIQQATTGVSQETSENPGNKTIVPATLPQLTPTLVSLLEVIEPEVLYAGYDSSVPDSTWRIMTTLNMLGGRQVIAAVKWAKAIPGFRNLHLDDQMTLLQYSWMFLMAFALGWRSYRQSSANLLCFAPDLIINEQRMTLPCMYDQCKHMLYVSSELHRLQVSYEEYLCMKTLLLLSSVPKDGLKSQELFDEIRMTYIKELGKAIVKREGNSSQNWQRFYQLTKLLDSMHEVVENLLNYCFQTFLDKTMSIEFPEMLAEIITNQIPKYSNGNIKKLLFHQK
Experimental: Test compounds were diluted in DMSO over seven orders of magnitude, further diluted in assay buffer and distributed into 384-well plates. The sensitivity limit of this assay was 2-4 nM.
Data were processed by sigmoidal curve fitting.
Absolute (Abs) IC50 and Emax were determined from the curve fits.

pIC50 [3]	SMILES	pEC50 [1]	HLM assay Eh (%) [2]
> 7.00	C[C@H](NC(=O)C(F)(F)F)[C@H](Oc1ccc(C(=O)N[C@H]2CCCN(C(=O)[C@H]3COC(=O)C3)C2)nc1)c1ccc(C2CC2)cc1 [Compound 2, 5-[(1R,2S)-1-(4-cyclopropylphenyl)-2-[(2,2,2-trifluoroacetyl)amino]propoxy]-N-[(3S)-1-[(3R)-5-oxotetrahydrofuran-3-carbonyl]-3-piperidyl]pyridine-2-carboxamide]	> 7.00	* (extraction ratio (Eh)>90%)
> 7.00	Cc1ccc([C@@H](Oc2ccc(C(=O)N[C@H]3CCCN(C(=O)O[C@@H]4CCOC4=O)C3)nc2)[C@H](C)NC(=O)C(F)(F)F)cc1 [Compound 74, [(3R)-2-oxotetrahydrofuran-3-yl] (3S)-3-[[5-[(1R,2S)-1-(p-tolyl)-2-[(2,2,2-trifluoroacetyl)amino]propoxy]pyridine-2-carbonyl]amino]piperidine-1-carboxylate]	> 7.00	
> 7.00	Cc1ccc([C@@H](Oc2ccc(C(=O)N[C@H]3CCCN(C(=O)O[C@H]4COC(=O)C4)C3)nc2)[C@H](C)NC(=O)C(F)(F)F)cc1 [Compound 76, [(34)-5-oxotetrahydrofuran-3-yl] (3S)-3-[[5-[(1R,2S)-1-(p-tolyl)-2-[(2,2,2-trifluoroacetyl)amino]propoxy]pyridine-2-carbonyl]amino]piperidine-1-carboxylate]	6.52 to 7.00	
> 7.00	C[C@H](NC(=O)[C@H]1CCCO1)[C@H](Oc1ccc(C(=O)O[C@H]2CCCN(C(=O)[C@@H]3COC(=O)C3)C2)cc1)c1ccc(C2CC2)cc1 [Compound 77, [(3S)-1-[(3S)-5-oxotetrahydrofuran-3-carbonyl]-3-piperidyl] 4-[(1R,2S)-1-(4-cyclopropylphenyl)-2-[[(2R)-tetrahydrofuran-2-carbonyl]amino]propoxy]benzoate]	> 7.00	

The next lines start with the molecule.

SMILES	pIC50 [3]	pEC50 [1]	HLM assay Eh (%) [2]
Cc1ccc([C@@H](Oc2ccc(C(=O)N[C@H]3CCCN(C(=O)[C@H]4COC(=O)C4)C3)nc2)[C@H](C)NC(=O)C(F)(F)F)cc1 [Compound 1, N-[(3S)-1-[(3R)-5-oxotetrahydrofuran-3-carbonyl]-3-piperidyl]-5-[(1R,2S)-1-(p-tolyl)-2-[(2,2,2-trifluoroacetyl)amino]propoxy]pyridine-2-carboxamide]		> 7.00	* (extraction ratio (Eh)>90%)
Cc1ccc([C@@H](Oc2ccc(C(=O)N[C@@H]3CCCN(C(=O)[C@H]4COC(=O)C4)C3)nc2)[C@H](C)NC(=O)C(F)(F)F)cc1 [Compound 59, N-[(3R)-1-[(3R)-5-oxotetrahydrofuran-3-carbonyl]-3-piperidyl]-5-[(1R,2S)-1-(p-tolyl)-2-[(2,2,2-trifluoroacetyl)amino]propoxy]pyridine-2-carboxamide]		> 7.00	** (50%<extraction ratio (Eh)<90%)
Cc1ccc([C@@H](Oc2ccc(C(=O)N[C@H]3CCCN(C(=O)N[C@H]4COC(=O)C4)C3)nc2)[C@H](C)NC(=O)C(F)(F)F)cc1 [Compound 72, N-[(3S)-1-[[(3R)-5-oxotetrahydrofuran-3-yl]carbamoyl]-3-piperidyl]-5-[(1R,2S)-1-(p-tolyl)-2-[(2,2,2-trifluoroacetyl)amino]propoxy]pyridine-2-carboxamide]	> 7.00	6.52 to 7.00	
Cc1ccc([C@@H](Oc2ccc(C(=O)N[C@H]3CCCN(C(=O)O[C@@H]4COC(=O)C4)C3)nc2)[C@H](C)NC(=O)C(F)(F)F)cc1 [Compound 75, [(3S)-5-oxotetrahydrofuran-3-yl] (3S)-3-[[5-[(1R,2S)-1-(p-tolyl)-2-[(2,2,2-trifluoroacetyl)amino]propoxy]pyridine-2-carbonyl]amino]piperidine-1-carboxylate]	> 7.00	6.52 to 7.00	
C[C@H](NC(=O)[C@@H]1CCCO1)[C@H](Oc1ccc(C(=O)O[C@H]2CCCN(C(=O)[C@H]3COC(=O)C3)C2)cc1)c1ccc(C2CC2)cc1 [Compound 78, [(3S)-1-[(3R)-5-oxotetrahydrofuran-3-carbonyl]-3-piperidyl] 4-[(1R,2S)-1-(4-cyclopropylphenyl)-2-[[(2S)-tetra hydrofuran-2-carbonyl]amino]propoxy]benzoate]	> 7.00	> 7.00	
